Results published in PubChem BioAssay (NCI).
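Each compound was tested at five concentrations against cells in 96-well plates for 48 hours. TGI marks complete inhibition of growth.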

Tests used:
Test in all cases: DTP human tumour cell line panel, 48 h
786-0 renal = tested on: 786-0 renal
A498 renal = tested on: A498 renal
A549 NSCLC = tested on: A549 NSCLC
ACHN renal = tested on: ACHN renal
BT-549 breast = tested on: BT-549 breast
CAKI-1 renal = tested on: CAKI-1 renal
CCRF-CEM leukemia = tested on: CCRF-CEM leukemia
COLO 205 colon = tested on: COLO 205 colon
DU-145 prostate = tested on: DU-145 prostate
EKVX NSCLC = tested on: EKVX NSCLC
HCC-2998 colon = tested on: HCC-2998 colon
HCT-116 colon = tested on: HCT-116 colon
HCT-15 colon = tested on: HCT-15 colon
HL-60(TB) leukemia = tested on: HL-60(TB) leukemia
HOP-62 NSCLC = tested on: HOP-62 NSCLC
HOP-92 NSCLC = tested on: HOP-92 NSCLC
HS 578T breast = tested on: HS 578T breast
HT29 colon = tested on: HT29 colon
IGROV1 ovarian = tested on: IGROV1 ovarian
K-562 leukemia = tested on: K-562 leukemia
KM12 colon = tested on: KM12 colon
LOX IMVI melanoma = tested on: LOX IMVI melanoma
M14 melanoma = tested on: M14 melanoma
MALME-3M melanoma = tested on: MALME-3M melanoma
MCF7 breast = tested on: MCF7 breast
MDA-MB-231 breast = tested on: MDA-MB-231 breast
MDA-MB-435 = tested on: MDA-MB-435
MDA-N = tested on: MDA-N
MOLT-4 leukemia = tested on: MOLT-4 leukemia
NCI-H226 lung = tested on: NCI-H226 lung
NCI-H23 lung = tested on: NCI-H23 lung
NCI-H460 lung = tested on: NCI-H460 lung
NCI-H522 lung = tested on: NCI-H522 lung
NCI/ADR-RES ovarian = tested on: NCI/ADR-RES ovarian
OVCAR-3 ovarian = tested on: OVCAR-3 ovarian
OVCAR-4 ovarian = tested on: OVCAR-4 ovarian
OVCAR-5 ovarian = tested on: OVCAR-5 ovarian
OVCAR-8 ovarian = tested on: OVCAR-8 ovarian
PC-3 prostate = tested on: PC-3 prostate
RPMI-8226 leukemia = tested on: RPMI-8226 leukemia
RXF 393 renal = tested on: RXF 393 renal
SF-268 CNS = tested on: SF-268 CNS
SF-295 CNS = tested on: SF-295 CNS
SF-539 CNS = tested on: SF-539 CNS
SK-MEL-2 melanoma = tested on: SK-MEL-2 melanoma
SK-MEL-28 melanoma = tested on: SK-MEL-28 melanoma
SK-MEL-5 melanoma = tested on: SK-MEL-5 melanoma
SK-OV-3 ovarian = tested on: SK-OV-3 ovarian
SN12C renal = tested on: SN12C renal
SNB-19 CNS = tested on: SNB-19 CNS
SNB-75 CNS = tested on: SNB-75 CNS
SR leukemia = tested on: SR leukemia
SW-620 colon = tested on: SW-620 colon
T-47D breast = tested on: T-47D breast
TK-10 renal = tested on: TK-10 renal
U251 CNS = tested on: U251 CNS
UACC-257 melanoma = tested on: UACC-257 melanoma
UACC-62 melanoma = tested on: UACC-62 melanoma
UO-31 renal = tested on: UO-31 renal

`CC1(C)CC(=O)C2=C(C1)C(c1ccccc1Cl)C1C(=O)CC(C)(C)CC1(O)O2` (centres undefined) was tested, and the TGI (786-0 renal) was > 100 µM, the TGI (A498 renal) was > 100 µM and the TGI (A549 NSCLC) was > 100 µM. For the same molecule, the TGI (ACHN renal) was > 100 µM, the TGI (BT-549 breast) was > 100 µM and the TGI (CAKI-1 renal) was > 100 µM. For the same molecule, the TGI (CCRF-CEM leukemia) was > 94.8 µM, the TGI (COLO 205 colon) was > 31.6 µM and the TGI (DU-145 prostate) was > 100 µM. The TGI (EKVX NSCLC) was > 100 µM, the TGI (HCC-2998 colon) was > 100 µM and the TGI (HCT-116 colon) was > 100 µM. The TGI (HCT-15 colon) was > 100 µM, the TGI (HL-60(TB) leukemia) was > 43.7 µM and the TGI (HOP-62 NSCLC) was > 100 µM. The TGI (HOP-92 NSCLC) was > 100 µM, the TGI (HS 578T breast) was > 100 µM and the TGI (HT29 colon) was > 100 µM. For the same molecule, the TGI (IGROV1 ovarian) was > 100 µM, the TGI (K-562 leukemia) was > 100 µM and the TGI (KM12 colon) was > 100 µM. For the same molecule, the TGI (LOX IMVI melanoma) was > 100 µM, the TGI (M14 melanoma) was > 100 µM and the TGI (MALME-3M melanoma) was > 100 µM. The TGI (MCF7 breast) was > 100 µM, the TGI (MDA-MB-231 breast) was > 100 µM and the TGI (MDA-MB-435) was > 95.8 µM. For the same molecule, the TGI (MDA-N) was > 100 µM, the TGI (MOLT-4 leukemia) was > 100 µM and the TGI (NCI-H226 lung) was > 100 µM. For the same molecule, the TGI (NCI-H23 lung) was > 100 µM, the TGI (NCI-H460 lung) was > 100 µM and the TGI (NCI-H522 lung) was > 100 µM. The TGI (NCI/ADR-RES ovarian) was > 100 µM, the TGI (OVCAR-3 ovarian) was > 100 µM and the TGI (OVCAR-4 ovarian) was > 100 µM. The TGI (OVCAR-5 ovarian) was > 100 µM, the TGI (OVCAR-8 ovarian) was > 100 µM and the TGI (PC-3 prostate) was > 100 µM. The TGI (RPMI-8226 leukemia) was > 100 µM, the TGI (RXF 393 renal) was > 100 µM and the TGI (SF-268 CNS) was > 100 µM. The TGI (SF-295 CNS) was > 31.6 µM, the TGI (SF-539 CNS) was > 100 µM and the TGI (SK-MEL-2 melanoma) was > 100 µM. For the same molecule, the TGI (SK-MEL-28 melanoma) was > 100 µM, the TGI (SK-MEL-5 melanoma) was > 100 µM and the TGI (SK-OV-3 ovarian) was > 100 µM. The TGI (SN12C renal) was > 100 µM, the TGI (SNB-19 CNS) was > 100 µM and the TGI (SNB-75 CNS) was > 100 µM. For the same molecule, the TGI (SR leukemia) was > 100 µM, the TGI (SW-620 colon) was > 100 µM and the TGI (T-47D breast) was > 100 µM. The TGI (TK-10 renal) was > 100 µM, the TGI (U251 CNS) was > 100 µM and the TGI (UACC-257 melanoma) was > 95.9 µM. The TGI (UACC-62 melanoma) was > 100 µM and the TGI (UO-31 renal) was > 100 µM.
